Columns and labels:
[1] = tested on: VCAM-1 and ICAM-1 protein expression in HUVEC; assay: Western blot of VCAM-1 and ICAM-1 protein expression induced by TNFα in HUVEC; assay type: cell-based, human; settings: TNFα 6 h, western blot normalised by β-actin
Experimental: FIGS. 2B and 2C show the effect of Compound 3 on VCAM-1 and ICAM-1 protein expression induced by TNFα in HUVEC after 6 h of incubation. B) Total protein extracts are recovered and analysed by western blot. β-actin serves as the loading control. C) Quantification of optical density of each band. Results are expressed as the ratio between the optical density of VCAM-1 or ICAM-1 and the optical density of β-actin.
HUVEC are seeded at 187,500 cells/flask in gelatin-coated T75 in EGM. After 4 days, cell medium is replaced by EBM containing or not containing Compound 3 at different concentrations. After 1 h of preincubation, 1 ng/ml TNFα is added or is not added into the T75 flasks. 6 h after, cell media are collected and centrifuged at 500 g for 5 min to pellet and pool floating cells with adherent cells. Adherent cells are washed twice with cold PBS and are collected in 1.5 ml of PBS. Harvested cells are then centrifuged at 500 g for 5 min at 4° C. […] Protein concentration is measured using Pierce method (Pierce 660 nm protein assay, Thermoscientific, USA) with the Ionic Detergent Compatibility Reagent (Thermoscientific, USA). […] Antibody binding was analysed with the scanner Odyssey Image System (Li-COR, Biosciences, USA) and Odyssey V3.0 software. Optical density of each band is also determined by using the software.

[2] = tested on: human coronary artery smooth muscle cells; assay: Human coronary artery smooth muscle cell proliferation (WST-1); assay type: cell-based; settings: growth factor media; Compound 3 50 nM, 500 nM, 5 μM added 1 h before U46619; 48 h; WST-1
Experimental: Human coronary artery SMC is cultured in SmGM2 kit medium. At 80% confluence, the SMCs are trypsinized and resuspended in either DMEM supplemented with 2% FCS (“low serum media”), or in SmGM2 kit medium containing 5% FCS, 2 ng/ml FGF, 0.5 ng/ml EGF, 5 μg/ml insulin (“growth factor media”). Subsequently, 5000 cells in 200 μL are added to each well in a 96-well plate and left to adhere overnight. Either vehicle or Compound 3 (50 nM, 500 nM, 5 μM) is added to the wells 1 h before U 46619 at different concentrations (0.1 nM to 10 μM) and incubated for another 48 h. All experiments are repeated 3-5 times for each experimental condition.
Cell proliferation is evaluated using WST-1 reagent according to the manufacturer's instructions. In brief, after replacement of phenol red containing media by 200 μL transparent serum-supplemented DMEM, 10 μL of diluted WST-1 reagent is added to each well at the end of the 48 h incubation period. After 1 h incubation at 37° C., the absorbance of the formazan dye formed is measured at 440 nm using a microplate reader.
All results are expressed as mean±SE. Statistically significant differences are determined by a one-way analysis of variances, followed by Holm-Sidak post hoc test, for multiple comparisons, using Sigma Stat software. A P value of less than 0.05 is considered significant.

TP receptor = target: T1, TP receptor (Homo sapiens, UniProt P21731); settings: 0.125 to 2.5 mg/kg; cited from earlier work
T1 sequence (P21731 1-343): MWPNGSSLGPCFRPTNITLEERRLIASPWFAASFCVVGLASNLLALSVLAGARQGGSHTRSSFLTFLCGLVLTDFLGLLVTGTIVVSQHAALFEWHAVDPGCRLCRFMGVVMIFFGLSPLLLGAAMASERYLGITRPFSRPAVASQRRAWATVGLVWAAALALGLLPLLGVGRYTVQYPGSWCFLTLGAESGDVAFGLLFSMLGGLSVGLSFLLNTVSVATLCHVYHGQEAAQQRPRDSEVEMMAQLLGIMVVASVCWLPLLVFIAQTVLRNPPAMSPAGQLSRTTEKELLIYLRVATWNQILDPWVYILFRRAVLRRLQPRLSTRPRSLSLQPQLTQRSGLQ

CC(C)(C)N.O=C(O)CC/C=C\C[C@@H]1CO[C@H](c2ccccc2Cl)O[C@@H]1c1ccccc1O [Compound 3, tert-butylammonium (Z)-6-((2S,4S,5R)-2-(2-chlorophenyl)-4-(2-hydroxyphenyl)-1,3-dioxan-5-yl)hex-4-enoate]
ICAM-1 protein expression induced by TNFα [1]: no effect
VCAM-1 protein expression induced by TNFα [1]: no effect
SMC proliferation induced by U46619 [2]: significantly and concentration-dependently inhibits
TP receptor activation in vivo (TP receptor): antagonize TP receptor activation in vivo

From patent US20160193179A1, “Treatment of Cardiovascular Risk in Diabetic Patients” (EVOLVA SA, priority 2012, published 2016)
